The source of these data is US12421496B2, “Method for producing natural killer cell and use thereof” (KOREA RESEARCH INSTITUTE OF BIOSCIENCE AND BIOTECHNOLOGY, priority 2017, dated 2025).

For experiment [1], the system named is PBMC cells into which OSKM was introduced. Briefly: Efficiency of direct reprogramming depending on composition of NKIM-II medium. It counts as cell-based, human. The following applies: added to NKIM-II medium, cultured for 29 days after 6 days in NKIM-I. Here is the method:
(§1) After introducing reprogramming factors (Oct4, Sox2, Klf4, and Myc) into PBMC cultured in the NKIM-I medium and NKIM-II medium, a mixture additive was added to the medium for analysis to promote the production capacity of natural killer cells produced by direct reprogramming.
In the case of NKIM-II medium, after introducing OSKM into PBMC cells, the following day, 1×10^5 transformed cells were added to a 48-well culture dish and cultured in NKIM-I medium for 6 days, and then these cells were cultured for 29 days in a medium in which StemRegenin I, which is an aryl hydrocarbon receptor antagonist, CH-223191, or FICZ, which is an aryl hydrocarbon receptor agonist, was added to NKIM-II.

The subject of experiment [2] is PBMC into which OSKM was introduced. Briefly: Efficiency of direct reprogramming depending on composition of NKIM-I medium. It counts as cell-based, human. The conditions noted are these: single additive in NKIM-I medium compared with the condition without additives. Here is the method:
as §1
Specifically, in the case of NKIM-I medium, after introducing OSKM into PBMC, the following day, 1×10^5 transformed cells were added to a 48-well culture dish in the reprogramming culture process with different combinations of 5 μM CHIR 99021, 2 mM LiCl, […], and 20 ng/mL human IL-15 in NKIM-I medium, and the production capacity of CD56+ induced natural killer cells was thereby confirmed.

Another experiment relates to PBMC (CD34−CD56−) cells. Briefly: Role of GSK3β inhibitor in direct reprogramming from PBMC to natural killer cells, flow cytometry. The following applies: when CT99021 (5 μM) was not added to NKIM-I medium, compared with added; 24th day. The format is cell-based, human. Here is the method:
On the 24th day when direct reprogramming was started as in Example 1, the cells were recovered and stained using antibodies against CD56 and CD4 attached with fluorescence and then the group of natural killer cells (CD56^+ and CD4^−) was analyzed by flow cytometry.

Another experiment relates to SW620. In words: In vivo anti-cancer effect, subcutaneous SW620 tumor in nude mice. Further details: species or system Balb/c-nude mouse. The following applies: 2 mg/kg i.p. every other day for two weeks; day 28. Here is the method: In addition, in vivo experiments were performed using mice to verify the anti-cancer effect of induced natural killer cells. The day after subcutaneous injection of 2×10^6 Sw620 into the back of 8-week-old nude mice (Balb/c-nude mouse, average weight 20 g to 25 g), induced natural killer cells (5×10^6, 1.5×10^7) and 2 mg/kg of doxorubicin were injected. Induced natural killer cells were injected intravenously (i.v.) twice on D1 and D4, and doxorubicin was injected intraperitoneally (i.p) every two days (every other day) for two weeks. On the 28th day, the mice of each group were sacrificed by cervical dislocation technique, and the protruding cancer masses formed under the skin of the mice of each group were extracted. The extracted Sw620 cancer was compared by group to confirm the anti-cancer effect of induced natural killer cells (FIG. 13A).

As to `O=Cc1c2[nH]c3ccccc3c2cc2[nH]c3ccccc3c12` [FICS], the “yield of induced natural killer cells” value in experiment [1] is recorded as “significantly reduced”. `Cc1ccccc1N=Nc1ccc(NC(=O)c2ccnn2C)c(C)c1` [CH-223191]: in experiment [1], the “yield of induced natural killer cells” value is “significantly increased”. As to `Cc1c[nH]c(-c2cnc(NCCNc3ccc(C#N)cn3)nc2-c2ccc(Cl)cc2Cl)n1` [CT99021], the “production of CD56+CD3− induced natural killer cells” value (from here on “production”) in experiment [2] is “effect of promoting the production”. In the experiment with PBMC (CD34−CD56−) cells, the “differentiation into natural killer cells (CD56+ and CD4−)” value is “significantly lowered”.

In the case of `CC(C)n1cnc2c(NCCc3ccc(O)cc3)nc(-c3csc4ccccc34)nc21.Cl` [StemRegenin I, (4-(2-((2-benzo[b]thiphen-3-yl)-9-isopropyl-9H-purin-6-yl)amino)ethyl)phenol hydrochloride], the “yield of induced natural killer cells” value in experiment [1] is reported as “significantly increased”. Besides, in experiment [2], the “production” value is “effect of promoting the production”.

As for `COc1cccc2c1C(=O)c1c(O)c3c(c(O)c1C2=O)C[C@@](O)(C(=O)CO)C[C@@H]3O[C@H]1C[C@H](N)[C@H](O)[C@H](C)O1` [doxorubicin], the tumor size in the experiment with SW620 amounted to 262 mm^3. Regarding `[Cl-].[Li+]` [LiCl], the “production” value in experiment [2] is reported as “effect of promoting the production”. Take “IL-15: human interleukin 15, cytokine additive”: the “production” value in experiment [2] is recorded as “effect of promoting the production”.

B1: IL-7: human interleukin 7, cytokine additive (protein, UniProt P13232 26-177, looked up)
Interleukin-7: DCDIEGKDGKQYESVLMVSIDQLLDSMKEIGSNCLNNEFNFFKRHICDANKEGMFLFRAARKLRQFLKMNSTGDFDLHLLKVSEGTTILLNCTGQVKGRKPAALGEAQPTKSLEENKSLKEQKKLNDLCFLKRLLQEIKTCWNKILMGTKEH
Regarding B1, in experiment [2], the “production” value was “effect of promoting the production”.
